In patent publication US4716153A, “Stable oral preparation of macrolide antibiotics and method for stabilizing the same” (priority 1982, dated 1987):
Like-named read-outs stand apart in the source and are kept apart here.

Tests used:
[1] = Stability in Japan Pharmacopoeia 1st solution (pH 1.2) at 37° C., with or without stabilizer (TLC densitometry, 232 nm); assay type: physicochemical; conditions: for improvement of stability compared with control, 30 minutes: value at 30 minutes; for stability in 1st solution (in words): 1st solution pH 1.2, no stabilizer; for stability with tri-sodium citrate (in words): 150-300 mg of tri-sodium citrate; for stability with calcium phosphate (in words): 150-400 mg of calcium phosphate; for stability with glycine (in words): 150-900 mg of glycine; for stability with L-aspartic acid monosodium salt (in words): 200-500 mg of Asp.Na; for stability with monosodium glutamate (in words): 200-500 mg of Glu.Na; for degraded at 0.5 h: read-out: decomposites (balance), 30 minutes; for remaining at 0.5 h: read-out: residual amount after contact with 1st solution, 30 minutes; for degraded at 1 h / remaining at 1 h: 60 minutes; for stability with a larger amount of glycine (in words): larger amount of glycine (up to 900 mg)
Text: The stabilizers showing pH 3-10 used in the invention may be substances having a buffering or antacid action and showing pH 3-10, preferably 5.5-6.5. These are, for example, neutral amino acids or their basic salts, basic salts of acidic amino acids, basic amino acids,basic salts of organic carboxylic acids,basic salts of polybasic organic carboxylic acids, basic salts of uronic acid or inorganic salt antacids. The neutral amino acids or basic salts thereof include glycine, alanine, aminobutyric acid, proline, leucine, isoleucine, methionine, threonine, serine, valine, or their aluminium salts, for example aluminium glycinate. Among these, glycine, alanine and aluminium glycinate, both of which show pH 5.5-6.5, are preferable. The basic salts of acidic amino acid include monobasic salts such as a monosodium, monopotassium or magnesium salt of glutaminic or aspartic acid. Among these monobasic salts, monosodium glutamate or monosodium aspartate is preferable. The basic amino acids include arginine, glutamine, asparagine, citrulin, tryptophane and histidine. Especially, histidine is preferable. The basic salts of monobasic organic carboxylic acid include basic salts such as sodium, potassium, magnesium or aluminium salts of saturated monobasic organic carboxylic acids such as acetic acid and propionic acid, of unsaturated monobasic organic acids such as acrylic acid, crotonic acid and vinylacetic acid, and of other monobasic organic acids such as lactic acid, pyruvic acid, glyceric acid and acetoacetic acid. The basic salts of polybasic organic carboxylic acid include mono-, di- or tri-sodium, potassium, magnesium, calcium or aluminium salts of saturated polybasic organic carboxylic acids such as oxalic acid, malonic acid, succinic acid, glutaric acid, adipic acid and pimelic acid, of unsaturated polybasic organic carboxylic acids such as maleic acid and fumaric acid, and of other polybasic organic carboxylic acids such as meso-oxalic acid, malic acid, oxalacetic acid and citric acid. Among these, trisodium citrate is preferable. The basic salts of uric acids include sodium salts of glucuronic acid, galacturonic acid or their polymers such as alginic acid or peptic acid and dihydroxyaluminium aminoacetate sodium alginate. The inorganic salt antacids include calcium hydrogenphosphate, disodium hydrogenphosphate, dipotassium hydrogenphosphate, magnesium hydrogenphosphate, calcium carbonate, sodium carbonate, potassium carbonate, sodium hydrogen carbonate, aluminium carbonate, magnesium carbonate, potassium metasilicate, magnesium aluminate metasilicate, sodium metasilicate, synthetic aluminium silicate, magnesium silicate, aluminium silicate, magnesium aluminate silicate, magnesium-bismuth aluminate silicate, magnesium oxide, alumina-magnesium hydroxide, magnesium peroxide, magnesium hydroxide, aluminium hydroxide, synthetic hydrotarphite, aluminium phosphate and others. Especially, calcium phosphate and magnesium phosphate are preferable. Each of these stabilizers may be used alone or in the form of a mixture. […] A method for stabilization of 16-membered ring macrolide antibiotics of the present invention will be described in detail. The afore-mentioned various 16-membered ring macrolide antibiotics, for example 9-hydroxy 16-membered ring macrolides such as midecamycin, 3"-propionylleucomycin A5 and josamycin and 9-acyloxy 16-membered ring macrolides such as 9,3"-diacetylmidecamycin and 9-propionyljosamycin show extremely poor residual rates when added to an acidic solution of the Japanese Pharmacopoeia lst liquid (pH 1.2) and allowed to stand. That is, the 9hydroxy 16-membered ring maclorides decompose in a short time to by-produce their iso, demycarosyl and/or isodemycarosyl forms. The 9-acyloxy 16-membered ring macrolides decompose, too, to by-produce their 9-deacyl, 9-deacyl-iso, demycarosyl, 9-deacyl-demycarosyl or 9-deacyl-iso-demycarosyl forms. […]

[2] = Elution rate in aqueous solutions of various pH and physiological saline solution; assay type: physicochemical; conditions: for elution rate, pH 1.2, 2 and 3: initial pH 1.2, 2 and 3; for elution rate, pH 1.2, 2 and 3 / elution rate, pH 4 and 5 / elution rate, physiological saline solution: 37° C.; for elution rate, pH 4 and 5: initial pH 4 and 5
Experimental: After 40 ml of Japan Pharmacopoeia 1st solution (pH 1.2) was placed in a vessel whose temperature was kept constant in a thermostat at 37° C., 200 mg of TMS-19-Q was added and the mixture was stirred by a magnetic stirrer. […] Then, Japan Pharmacopoeia 2nd solution were mixed with the 1st solution, and by using aqueous solutions whose pH values were adjusted to be 2, 3, 4 and 5 and a physiological saline solution, respectively, elution rate of each thereof was measured.
To 40 ml of Japan Pharmacopoeia 1st solution (pH 1.2), 120 ml of water was added, and after the solution was kept in a constant temperature bath controlled at 37° C., 200 mg of midecamycin was added, and the mixture was stirred by a magnetic stirrer. Then, 5 ml aliquots of the solution were sampled in a lapse of time (at 5 minutes, 15 minutes and 30 minutes), and absorbances were measured (wavelength: 232 nm) and elution rate were calculated. Then, Japan Pharmacopoeia 1st solution and Japan Pharmacopoeia 2nd solution were mixed to prepare aqueous solutions whose pH values were adjusted to be 2, 3, 4 and 5, respectively. By using these solutions and physiological saline solution, the elution rates were calculated following the same procedures as those indicated above.
By following the same procedures and under the same conditions as those of Example 31, elution rates of 9-propionyljosamycin were measured.
By following the same procedures and under the same conditions as those of Example 31, elution rates of josamycin were measured.
In addition to the conditions of Example 31, Japan Pharmacopoeia 1st solution and Japan Parmacopoeia 2nd solution were mixed to prepare an aqueous solution having pH of 2.5, and following the same procedures as those of Example 31, elution rates of 9,3"-diacetylmidecamycin were measured.

[3] = jp 1st solution, 1st solution pH 1.2, 37° C., 30 minutes, no stabilizer
[4] = jp 1st solution, 1st solution pH 1.2, 37° C., no stabilizer, read-out: decomposites (balance), 60 minutes
[5] = jp 1st solution, 1st solution pH 1.2, 37° C., no stabilizer, read-out: residual amount after contact with 1st solution, 60 minutes
[6] = solutions whose pH is equal to or less than 4.37
[7] = 1st solution pH 1.2, 37° C., 30 minutes, no stabilizer
[8] = jp 1st solution, pH 1.2, 1st solution pH 1.2, 37° C., 30 minutes, no stabilizer

| improvement of stability compared with control, 30 minutes ([1]; 150 mg of glycine) [%] | stability in 1st solution (in words) [1] | stability with tri-sodium citrate (in words) ([1]; 1st solution) | stability with calcium phosphate (in words) ([1]; 1st solution) | stability with glycine (in words) ([1]; 1st solution) | stability with L-aspartic acid monosodium salt (in words) ([1]; 1st solution) | stability with monosodium glutamate (in words) ([1]; 1st solution) | degraded at 0.5 h [1, 3] [%] | remaining at 0.5 h [1, 3] [%] | degraded at 1 h [1, 4] [%] | remaining at 1 h [1, 5] [%] | stability with a larger amount of glycine (in words) [1] | elution rate in physiological saline solution (summary) ([2]; general description) | elution rate, pH 1.2, 2 and 3 ([2]; after 15-minute stirring) [%] | elution rate, pH 4 and 5 ([2]; after 15-minute stirring) | elution rate in pH 1.2-3 acidic aqueous solution (summary) ([2]; general description) | elution rate in pH 4-5 weak acidic aqueous solution (summary) ([2]; general description) | elution rate, physiological saline solution ([2]; after 15-minute stirring) [%] | time within which elution was nearly completed [2, 6] [min] | SMILES | also measured |
| --- | --- | --- | --- | --- | --- | --- | --- | --- | --- | --- | --- | --- | --- | --- | --- | --- | --- | --- | --- | --- |
| 60 | extremely unstable | very much enhanced | extremely enhanced | stabilized well | very much enhanced | very much enhanced | 50.6 | 49.4 | 75.5 | 24.5 | hardly decomposed | less than 15% |  |  |  |  |  |  | CCC(=O)OC1CC(=O)OC(C)C/C=C/C=C/C(OC(C)=O)C(C)CC(CC=O)C(OC2OC(C)C(OC3CC(C)(OC(C)=O)C(OC(=O)CC)C(C)O3)C(N(C)C)C2O)C1OC (stereo not drawn) [9,3"-diacetylmidecamycin] | elution rate, pH 1.2, 2 and 2.5 ([2]; initial pH 1.2, 2 and 2.5, after 15-minute stirring): ≥ 95%; elution rate, pH 3 ([2]; initial pH 3, after 15-minute stirring): 50%; elution rate, pH 4 and 5 and physiological saline solution ([2]; initial pH 4 and 5 and physiological saline, after 15-minute stirring): 5-10%; elution rate in pH 1.2-2.5 acidic aqueous solution (summary) ([2]; pH 1.2-2.5, general description): more than 95%; time within which elution was nearly completed ([2]; solutions whose final pH is equal to or less than 3.77): ≤ 15 min |
|  | extremely unstable | very much enhanced | extremely enhanced | stabilized well | very much enhanced | very much enhanced | 55.8 | 44.2 | 84.1 | 15.9 | hardly decomposed | less than 15% | ≥ 95 | 45-55% | more than 95% | less than 50% | 10 | ≤ 15 | CCC(=O)O[C@H]1/C=C/C=C/C[C@@H](C)OC(=O)C[C@@H](OC(C)=O)[C@H](OC)[C@@H](O[C@@H]2O[C@H](C)[C@@H](O[C@H]3C[C@@](C)(O)[C@@H](OC(=O)CC(C)C)[C@H](C)O3)[C@H](N(C)C)[C@H]2O)[C@@H](CC=O)C[C@H]1C [9-propionyljosamycin] | improvement of stability compared with control, 60 minutes ([1]; 150 mg of glycine, value at 60 minutes): improved by four times; degraded at 25 min ([1]; jp 1st solution, pH 1.2, 1st solution, about 25 minutes, read-out: decomposition in contact with 1st solution): 50% |
| 30 |  |  |  |  |  |  |  |  |  |  |  | less than 15% | ≥ 95 | 50-60% | more than 95% | less than 50% | 15 |  | CO[C@@H]1[C@@H](O[C@@H]2O[C@H](C)[C@@H](O[C@H]3C[C@@](C)(O)[C@@H](OC(=O)CC(C)C)[C@H](C)O3)[C@H](N(C)C)[C@H]2O)[C@@H](CC=O)C[C@@H](C)[C@@H](O)/C=C/C=C/C[C@@H](C)OC(=O)C[C@H]1OC(C)=O [josamycin] | degraded at 1 h ([1]; jp 1st solution, pH 1.2, decomposites (balance)): 53.3%; remaining at 1 h ([1]; jp 1st solution, pH 1.2, residual amount after contact with 1st solution): 46.7%; time within which elution was nearly completed ([2]; solutions whose pH is equal to or less than 4.35): ≤ 15 min |
| 50 | extremely unstable | extremely well stabilized | extremely well stabilized | stabilized well | very much enhanced | very much enhanced |  |  |  |  | hardly decomposed | less than 15% | ≥ 95 | 45-60% | more than 95% | less than 50% | 15 | ≤ 15 | CCC(=O)OC1CC(=O)OC(C)C/C=C/C=C/C(O)C(C)CC(CC=O)C(OC2OC(C)C(OC3CC(C)(O)C(OC(=O)CC)C(C)O3)C(N(C)C)C2O)C1OC (stereo not drawn) [midecamycin] | decomposites (balance), 30 minutes [1, 7]: 42.6%; residual amount after contact with 1st solution, 30 minutes [1, 7]: 57.4%; degraded at 0.5 h [1, 8]: 55%; remaining at 0.5 h [1, 8]: 45%; degraded at 1 h ([1]; jp 1st solution, pH 1.2, 1st solution pH 1.2, 37° C., no stabilizer, read-out: decomposites (balance), 60 minutes): 65%; remaining at 1 h ([1]; jp 1st solution, pH 1.2, 1st solution pH 1.2, 37° C., no stabilizer, read-out: residual amount after contact with 1st solution, 60 minutes): 35% |
